In patent publication US20260138976A1 (Hoffmann-La Roche Inc., priority 2022, published 2026):

Tested on: primary human T-cells
Experiment: IL2 secretion measurements (24 h, CD3-stimulated T-cells, PBS counter screen)
Assay type: cell-based
Details: for Emax IL2 (% activation): CD3 condition, normalised to DMSO (neutral) and 20 μM reference compound A1 = 100%; for EC50: Homo sapiens, T-cell, CD3-stimulated primary human T-cells, IL2 secretion, fitted sigmoidal curve, read-out: Tcell IL2 CD3 EC50
Summary of the method: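 Expanded primary human T-cells (100k/well) were plated on anti-CD3-coated or PBS-only plates with compound in a 5–6 point dose response (top 20 or 10 μM final, 3.333-fold, 0.2% DMSO). IL-2 in 24 h supernatants was quantified by ProQuantum immunoassay or ELISA. Values were normalized to DMSO and 20 μM reference compound A1 (100%), giving EC50 and Emax.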

Compound	Emax IL2 (% activation)	EC50
CC(C)(C)c1nnc(-c2ccc3c(c2)N(Cc2ccc(-n4nnc(C(F)(F)F)n4)cc2)C(=O)[C@@H](N)CS3(=O)=O)o1 [Example 90, (3R)-3-amino-7-(5-tert-butyl-1,3,4-oxadiazol-2-yl)-1,1-dioxo-5-[[4-[5-(trifluoromethyl)tetrazol-2-yl]phenyl]methyl]-2,3-dihydro-1λ^6,5-benzothiazepin-4-one]	159 % activation	1.01 µM
CC(C)(C)c1nnc(-c2ccc3c(c2)N(Cc2ccc(-c4ncc(C(F)(F)F)o4)cc2)C(=O)[C@@H](N)CS3(=O)=O)o1 [Example 93, (3R)-3-amino-7-(5-tert-butyl-1,3,4-oxadiazol-2-yl)-1,1-dioxo-5-[[4-[5-(trifluoromethyl)oxazol-2-yl]phenyl]methyl]-2,3-dihydro-1λ^6,5-benzothiazepin-4-one]	279 % activation	0.202 µM
CCC(O)(c1nnc(-c2ccc3c(c2)N(Cc2ccc(-c4noc(C(F)(F)F)n4)cc2)C(=O)[C@@H](N)CS3(=O)=O)o1)C(F)(F)F (stereo partly drawn) [Example 95]	172 % activation	0.807 µM
N[C@H]1CS(=O)(=O)c2ccc(-c3nnc(C4(N)CCCCC4)o3)cc2N(Cc2ccc(-c3ccc(C(F)(F)F)cn3)cc2)C1=O [Example 41, (3R)-3-amino-7-[5-(1-aminocyclohexyl)-1,3,4-oxadiazol-2-yl]-1,1-dioxo-5-[[4-[5-(trifluoromethyl)-2-pyridyl]phenyl]methyl]-2,3-dihydro-1λ^6,5-benzothiazepin-4-one]	66 % activation	3.34 µM
CC(C#N)c1nnc(-c2ccc3c(c2)N(Cc2ccc(-c4noc(C(F)(F)F)n4)cc2)C(=O)[C@@H](N)CS3(=O)=O)o1 (stereo partly drawn) [Example 35, 2-[5-[(3R)-3-amino-1,1,4-trioxo-5-[[4-[5-(trifluoromethyl)-1,2,4-oxadiazol-3-yl]phenyl]methyl]-2,3-dihydro-1λ^6,5-benzothiazepin-7-yl]-1,3,4-oxadiazol-2-yl]propanenitrile]	193 % activation	2.15 µM
COC(=O)N1CC2CC(c3nnc(-c4ccc5c(c4)N(Cc4ccc(-c6ccc(C(F)(F)F)cc6)nc4)C(=O)[C@@H](N)CS5(=O)=O)o3)(C2)C1 [Example 58, methyl 1-[5-[(3R)-3-amino-1,1,4-trioxo-5-[[6-[4-(trifluoromethyl)phenyl]-3-pyridyl]methyl]-2,3-dihydro-1λ^6,5-benzothiazepin-7-yl]-1,3,4-oxadiazol-2-yl]-3-azabicyclo[3.1.1]heptane-3-carboxylate]	505 % activation	4.71 µM
Cc1nc(-c2ccc(CN3C(=O)[C@@H](N)CS(=O)(=O)c4ccc(-c5nnc(C(C)(C)C#N)o5)cc43)cc2)ccc1C(F)(F)F [Example 114]	48 % activation	1.05 µM
CC(C)(C)c1nnc(-c2ccc(CN3C(=O)[C@@H](N)CS(=O)(=O)c4ccc(-c5nnc(C(C)(C)C)o5)cc43)cc2)o1 [Example 19, (3R)-3-amino-7-(5-tert-butyl-1,3,4-oxadiazol-2-yl)-5-[[4-(5-tert-butyl-1,3,4-oxadiazol-2-yl)phenyl]methyl]-1,1-dioxo-2,3-dihydro-1λ^6,5-benzothiazepin-4-one]	40 % activation	> 10 µM
C[C@@](N)(c1nnc(-c2ccc3c(c2)N(Cc2ccc(-c4ccc(OC(F)(F)F)cn4)cc2)C(=O)[C@@H](N)CS3(=O)=O)o1)C(F)(F)F [Example 153, (3R)-3-amino-7-[5-[(1R)-1-amino-2,2,2-trifluoro-1-methyl-ethyl]-1,3,4-oxadiazol-2-yl]-1,1-dioxo-5-[[4-[5-(trifluoromethoxy)-2-pyridyl]phenyl]methyl]-2,3-dihydro-1λ^6,5-benzothiazepin-4-one]	193 % activation	0.245 µM
